Where two headings read alike, the source gives them in different places.
Tested on: NL-RLuc virus (recombinant HIV NL4-3 proviral clone with Renilla Luciferase) in MT-2 cells
Assay: Inhibition of HIV Replication (NL-RLuc luciferase reporter virus, MT-2 cells)
Format: cell-based
Settings: MT2, 120 h
From the text: Inhibition of HIV Replication:
A recombinant NL-RLuc proviral clone was constructed in which a section of the nef gene from NL4-3 was replaced with the Renilla Luciferase gene. This virus is fully infectious and can undergo multiple cycles of replication in cell culture. In addition, the luciferous reporter provides a simple and easy method for quantitating the extent of virus growth and consequently, the antiviral activity of test compounds. The plasmid pNLRLuc contains the proviral NL-Rluc DNA cloned into pUC 18 at the PvuII site. The NL-RLuc virus was prepared by transfection of 293T cells with the plasmid pNLRLuc. Transfections were performed using the LipofectAMINE PLUS kit from Invitrogen (Carlsbad, Calif.) according to the manufacturer and the virus generated was titered in MT-2 cells. For susceptibility analyses, the titrated virus was used to infect MT-2 cells in the presence of compound, and after 5 days of incubation, cells were processed and quantitated for virus growth by the amount of expressed luciferase. Assay media was RPMI 1640 supplemented with 10% heat inactivated fetal bovine serum (FBS), 100 units/ml penicillin G/100 units/ml streptomycin, 10 mM HEPES buffer pH 7.55 and 2 mM L-glutamine. The results from at least 2 experiments were used to calculate the EC50 values. Luciferase was quantitated using the Dual Luciferase kit from Promega (Madison, Wis.). Susceptibility of viruses to compounds was determined by incubation in the presence of serial dilutions of the compound. The 50% effective concentration (EC50) was calculated by using the exponential form of the median effect equation where (Fa)=1/[1+(ED50/drug conc.)^m](Johnson V A, Byington R T. Infectivity Assay. In Techniques in HIV Research. ed. Aldovini A, Walker B D. 71-76. New York: Stockton Press. 1990). Activity equal to A refers to a compound having an EC50≤100 nM, while B and C denote compounds having an EC50 between 100 nM and 1 uM (B) or >1 uM (C).

Cc1nc(C)c([C@H](OC(C)(C)C)C(=O)O)c(N2CCC(C)(C)CC2)c1-c1ccc(CN(Cc2ccc(F)cc2)C(=O)C(C)C)cc1 [Example 23, (S)-2-(tert-butoxy)-2-(4-(4,4-dimethylpiperidin-1-yl)-5-(4-((N-(4-fluorobenzyl)isobutyramido)methyl)phenyl)-2,6-dimethylpyridin-3-yl)acetic acid]
EC50 (read-out: Activity): < 0.1 µM

Cc1nc(C)c([C@H](OC(C)(C)C)C(=O)O)c(N2CCC(C)(C)CC2)c1-c1ccc(CN(Cc2ccc(F)cc2)C(=O)C2CCC2)cc1 [Example 42, (S)-2-(tert-butoxy)-2-(4-(4,4-dimethylpiperidin-1-yl)-5-(4-((N-(4-fluorobenzyl)cyclobutanecarboxamido)methyl)phenyl)-2,6-dimethylpyridin-3-yl)acetic acid]
EC50 (read-out: Activity): < 0.1 µM

CCOC(=O)N(Cc1ccc(F)cc1)Cc1ccc(-c2c(C)nc(C)c([C@H](OC(C)(C)C)C(=O)O)c2N2CCC(C)(C)CC2)cc1 [Example 33, (S)-2-(tert-butoxy)-2-(4-(4,4-dimethylpiperidin-1-yl)-5-(4-(((ethoxycarbonyl)(4 fluorobenzyl)amino)methyl)phenyl)-2,6-dimethylpyridin-3-yl)acetic acid]
EC50 (read-out: Activity): < 0.1 µM

Cc1nc(C)c([C@H](OC(C)(C)C)C(=O)O)c(N2CCC(C)(C)CC2)c1-c1ccc(CN(C)CCc2ccc(F)cc2)cc1 [Example 5, (S)-2-(tert-butoxy)-2-(4-(4,4-dimethylpiperidin-1-yl)-5-(4-(((4-fluorophenethyl)(methyl)amino)methyl)phenyl)-2,6-dimethylpyridin-3-yl)acetic acid]
EC50 (read-out: Activity): < 0.1 µM

Cc1nc(C)c([C@H](OC(C)(C)C)C(=O)O)c(N2CCC(C)(C)CC2)c1-c1ccc(CNCC2CCCCC2)cc1 [Example 17, (S)-2-(tert-butoxy)-2-(5-(4-(((cyclohexylmethyl)amino)methyl)phenyl)-4-(4,4-dimethylpiperidin-1-yl)-2,6-dimethylpyridin-3-yl)acetic acid]
EC50 (read-out: Activity): 0.1 to 1 µM

Cc1nc(C)c([C@H](OC(C)(C)C)C(=O)O)c(N2CCC(C)(C)CC2)c1-c1ccc(CN(Cc2ccc(F)cc2)C(=O)OCc2ccccc2)cc1 [Example 31, (S)-2-(5-(4-((((benzyloxy)carbonyl)(4-fluorobenzyl)amino)methyl)phenyl)-4-(4,4-dimethylpiperidin-1-yl)-2,6-dimethylpyridin-3-yl)-2-(tert-butoxy)acetic acid]
EC50 (read-out: Activity): < 0.1 µM

Cc1nc(C)c([C@H](OC(C)(C)C)C(=O)O)c(N2CCC(C)(C)CC2)c1-c1ccc(CNCCC2CCCCC2)cc1 [Example 13, (S)-2-(tert-butoxy)-2-(5-(4-(((2-cyclohexylethyl)amino)methyl)phenyl)-4-(4,4-dimethylpiperidin-1-yl)-2,6-dimethylpyridin-3-yl)acetic acid]
EC50 (read-out: Activity): 0.1 to 1 µM

Cc1nc(C)c([C@H](OC(C)(C)C)C(=O)O)c(N2CCC(C)(C)CC2)c1-c1ccc(CN2CCOCC2)cc1 [Example 2, (S)-2-(tert-Butoxy)-2-(4-(4,4-dimethylpiperidin-1-yl)-2,6-dimethyl-5-(4-(morpholinomethyl)phenyl)pyridin-3-yl)acetic acid]
EC50 (read-out: Activity): 0.1 to 1 µM
EC50 (read-out: EC50 μM): 0.113 µM

CCC(=O)N(Cc1ccc(F)cc1)Cc1ccc(-c2c(C)nc(C)c([C@H](OC(C)(C)C)C(=O)O)c2N2CCC(C)(C)CC2)cc1 [Example 22, (S)-2-(tert-butoxy)-2-(4-(4,4-dimethylpiperidin-1-yl)-5-(4-((N-(4-fluorobenzyl)propionamido)methyl)phenyl)-2,6-dimethylpyridin-3-yl)acetic acid]
EC50 (read-out: Activity): < 0.1 µM

Cc1nc(C)c([C@H](OC(C)(C)C)C(=O)O)c(N2CCC(C)(C)CC2)c1-c1ccc(CNCc2ccc(F)cc2)cc1 [Example 4, (S)-2-(tert-butoxy)-2-(4-(4,4-dimethylpiperidin-1-yl)-5-(4-(((4-fluorobenzyl)amino)methyl)phenyl)-2,6-dimethylpyridin-3-yl)acetic acid]
EC50 (read-out: Activity): < 0.1 µM

Cc1nc(C)c([C@H](OC(C)(C)C)C(=O)O)c(N2CCC(C)(C)CC2)c1-c1ccc(COc2cccc(C(F)(F)F)c2)cc1 [Example 48, (S)-2-(tert-Butoxy)-2-(4-(4,4-dimethylpiperidin-1-yl)-2,6-dimethyl-5-(4-((3-(trifluoromethyl)phenoxy)methyl)phenyl)pyridin-3-yl)acetic acid]
EC50 (read-out: Activity): < 0.1 µM

Cc1nc(C)c([C@H](OC(C)(C)C)C(=O)O)c(N2CCC(C)(C)CC2)c1-c1ccc(CN(Cc2ccc(F)cc2)CC2CCCO2)cc1 (stereo partly drawn) [Example 3, (2S)-2-(tert-Butoxy)-2-(4-(4,4-dimethylpiperidin-1-yl)-5-(4-(((4-fluorobenzyl) ((tetrahydrofuran-2-yl)methyl)amino)methyl)phenyl)-2,6-dimethylpyridin-3-yl)acetic acid]
EC50 (read-out: Activity): < 0.1 µM

Cc1nc(C)c([C@H](OC(C)(C)C)C(=O)O)c(N2CCC(C)(C)CC2)c1-c1ccc(CN(Cc2ccc(F)cc2)S(=O)(=O)c2ccccc2)cc1 [Example 36, (S)-2-(tert-butoxy)-2-(4-(4,4-dimethylpiperidin-1-yl)-5-(4-((N-(4-fluorobenzyl)phenylsulfonamido)methyl)phenyl)-2,6-dimethylpyridin-3-yl)acetic acid]
EC50 (read-out: Activity): < 0.1 µM

Cc1nc(C)c([C@H](OC(C)(C)C)C(=O)O)c(N2CCC(C)(C)CC2)c1-c1ccc(CN(Cc2ccc(F)cc2)C(=O)C2CCCC2)cc1 [Example 20, (S)-2-(tert-butoxy)-2-(4-(4,4-dimethylpiperidin-1-yl)-5-(4-((N-(4-fluorobenzyl)cyclopentanecarboxamido)methyl)phenyl)-2,6-dimethylpyridin-3-yl)acetic acid]
EC50 (read-out: Activity): < 0.1 µM

CC(=O)N(Cc1ccc(F)cc1)Cc1ccc(-c2c(C)nc(C)c([C@H](OC(C)(C)C)C(=O)O)c2N2CCC(C)(C)CC2)cc1 [Example 24, (S)-2-(tert-butoxy)-2-(4-(4,4-dimethylpiperidin-1-yl)-5-(4-((N-(4-fluorobenzyl)acetamido)methyl)phenyl)-2,6-dimethylpyridin-3-yl)acetic acid]
EC50 (read-out: Activity): < 0.1 µM

Cc1nc(C)c([C@H](OC(C)(C)C)C(=O)O)c(N2CCC(C)(C)CC2)c1-c1ccc(COCc2ccc(F)cc2)cc1 [Example 51, (S)-2-(tert-Butoxy)-2-(4-(4,4-dimethylpiperidin-1-yl)-5-(4-(((4-fluorobenzyl)oxy)methyl)phenyl)-2,6-dimethylpyridin-3-yl)acetic acid]
EC50 (read-out: Activity): > 1 µM

Cc1nc(C)c([C@H](OC(C)(C)C)C(=O)O)c(N2CCC(C)(C)CC2)c1-c1ccc(CN(Cc2ccc(F)cc2)C(=O)c2ccc(C(F)(F)F)cc2)cc1 [Example 46, (S)-2-(tert-butoxy)-2-(4-(4,4-dimethylpiperidin-1-yl)-5-(4-((N-(4-fluorobenzyl)-4-(trifluoromethyl)benzamido)methyl)phenyl)-2,6-dimethylpyridin-3-yl)acetic acid]
EC50 (read-out: Activity): < 0.1 µM
EC50 (read-out: EC50 μM): 0.016 µM

Cc1nc(C)c([C@H](OC(C)(C)C)C(=O)O)c(N2CCC(C)(C)CC2)c1-c1ccc(CN(Cc2ccc(F)cc2)C(=O)c2cccc(C(F)(F)F)c2)cc1 [Example 38, (S)-2-(tert-butoxy)-2-(4-(4,4-dimethylpiperidin-1-yl)-5-(4-((N-(4-fluorobenzyl)-3-(trifluoromethyl)benzamio)methyl)phenyl)-2,6-dimethylpyridin-3-yl)acetic acid]
EC50 (read-out: Activity): < 0.1 µM

Cc1nc(C)c([C@H](OC(C)(C)C)C(=O)O)c(N2CCC(C)(C)CC2)c1-c1ccc(CNCc2ccc(Cl)c(Cl)c2)cc1 [Example 12, (S)-2-(tert-butoxy)-2-(5-(4-(((3,4-dichlorobenzyl)amino)methyl)phenyl)-4-(4,4-dimethylpiperidin-1-yl)-2,6-dimethylpyridin-3-yl)acetic acid]
EC50 (read-out: Activity): < 0.1 µM

Cc1nc(C)c([C@H](OC(C)(C)C)C(=O)O)c(N2CCC(C)(C)CC2)c1-c1ccc(CN(Cc2ccc(F)cc2)C(=O)N2CCCC2)cc1 [Example 35, (S)-2-(tert-butoxy)-2-(4-(4,4-dimethylpiperidin-1-yl)-5-(4-((N-(4-fluorobenzyl)pyrrolidine-1-carboxamido)methyl)phenyl)-2,6-dimethylpyridin-3-yl)acetic acid]
EC50 (read-out: Activity): < 0.1 µM

Cc1nc(C)c([C@H](OC(C)(C)C)C(=O)O)c(N2CCC(C)(C)CC2)c1-c1ccc(CN(Cc2ccc(F)cc2)S(C)(=O)=O)cc1 [Example 34, (S)-2-(tert-butoxy)-2-(4-(4,4-dimethylpiperidin-1-yl)-5-(4-((N-(4-fluorobenzyl)methylsulfonamido)methyl)phenyl)-2,6-dimethylpyridin-3-yl)acetic acid]
EC50 (read-out: Activity): < 0.1 µM

Cc1nc(C)c([C@H](OC(C)(C)C)C(=O)O)c(N2CCC(C)(C)CC2)c1-c1ccc(CNCc2ccccc2)cc1 [Example 14, (S)-2-(5-(4-((benzylamino)methyl)phenyl)-4-(4,4-dimethylpiperidin-1-yl)-2,6-dimethylpyridin-3-yl)-2-(tert-butoxy)acetic acid]
EC50 (read-out: Activity): < 0.1 µM

From patent US20180170903A1, “PYRIDIN-3-YL ACETIC ACID DERIVATIVES AS INHIBITORS OF HUMAN IMMUNODEFICIENCY VIRUS REPLICATION” (ViiV HEALTHCARE UK (NO.5) LIMITED, priority 2015, published 2018)
